The source of these data is ChEMBL document CHEMBL4765277, “Design, synthesis and biological evaluation of novel indazole-based derivatives as potent HDAC inhibitors via fragment-based virtual screening” (Eur J Med Chem, 2020).

In one assay the target is Histone deacetylase 1 (Homo sapiens, UniProt Q13547). Briefly: Inhibition of recombinant human C-terminal His/FLAG-tagged HDAC1 (1 to end residues) expressed in sf9 insect cells using Boc-Lys(Ac)-AMC as substrate incubated for 60 mins by fluorescence assay.
In another assay the target is Histone deacetylase 2 (Homo sapiens, UniProt Q92769). Nature of the assay: Inhibition of recombinant human C-terminal His-tagged HDAC2 (1 to end residues) expressed in sf9 insect cells using Boc-Lys(Ac)-AMC as substrate incubated for 60 mins by fluorescence assay.
For another assay, the target named is T1, Histone deacetylase 8 (Homo sapiens, UniProt Q9BY41).
T1 sequence (Q9BY41 whole entry): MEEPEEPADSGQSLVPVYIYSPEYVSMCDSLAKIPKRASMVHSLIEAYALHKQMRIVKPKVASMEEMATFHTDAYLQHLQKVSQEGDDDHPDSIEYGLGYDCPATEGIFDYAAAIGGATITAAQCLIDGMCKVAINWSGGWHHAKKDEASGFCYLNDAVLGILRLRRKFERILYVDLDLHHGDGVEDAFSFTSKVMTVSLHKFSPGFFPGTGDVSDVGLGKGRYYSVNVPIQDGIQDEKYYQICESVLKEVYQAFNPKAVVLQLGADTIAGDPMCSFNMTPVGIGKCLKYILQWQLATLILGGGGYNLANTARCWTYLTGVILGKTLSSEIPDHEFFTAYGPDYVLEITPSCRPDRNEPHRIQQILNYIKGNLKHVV
Briefly: Inhibition of recombinant human full length C-terminal His-tagged HDAC8 expressed in sf9 insect cells using Boc-Lys(TFA)-AM as substrate incubated for 60 mins by fluorescence assay.

Assay [1] deals with HCT-116. Briefly: Antiproliferative activity against human HCT-116 cells assessed as reduction in cell viability after 72 hrs by MTT assay. In kind it is functional, cell-based. The conditions noted are these: HCT-116, 72 h. (Tetrazolium dyes change colour on reduction, which living cells bring about.)
The test system of the next assay is HeLa. Briefly: cells. In kind it is functional, cell-based. The conditions noted are these: Homo sapiens, 72 h.
The next assay deals with MCF7. Briefly: cells. The conditions noted are these: Homo sapiens, MCF7, 72 h.
Assay [2] has as its system HCT-116. Nature of the assay: Induction of cell cycle arrest in human HCT116 cells assessed as cell accumulation at G0/G1 phase at 3 uM after 24 hrs by Rnase/PI staining based flow cytometric analysis (reference value: 48.4%). In kind it is functional. (In general: A flow cytometer gives signals particle by particle.)
The subject of assay [3] is HCT-116. Nature of the assay: Induction of cell cycle arrest in human HCT116 cells assessed as cell accumulation at S phase at 3 uM after 24 hrs by Rnase/PI staining based flow cytometric analysis (reference value: 25.2%). Type of assay: functional.
Assay [4] relates to HCT-116. Nature of the assay: Induction of cell cycle arrest in human HCT116 cells assessed as cell accumulation at G2/M phase at 3 uM after 24 hrs by Rnase/PI staining based flow cytometric analysis (reference value: 26.4%). In kind it is functional.
The subject of assay [5] is HCT-116. Briefly: Induction of apoptosis in human HCT-116 cells assessed as viable cells at 3 uM after 24 hrs by Annexin V-FITC/PI staining based flow cytometric analysis (reference value: 90.34%). In kind it is functional.
The subject of assay [6] is HCT-116. Nature of the assay: Induction of apoptosis in human HCT-116 cells assessed as viable cells at 1 uM after 24 hrs by Annexin V-FITC/PI staining based flow cytometric analysis (reference value: 90.34%). In kind it is functional.
The subject of assay [7] is HCT-116. Briefly: Induction of apoptosis in human HCT-116 cells assessed as early apoptotic cells at 10 uM after 24 hrs by Annexin V-FITC/PI staining based flow cytometric analysis (reference value: 4.01%). Type of assay: functional.
Assay [8] concerns HCT-116. Nature of the assay: Induction of apoptosis in human HCT-116 cells assessed as early apoptotic cells at 3 uM after 24 hrs by Annexin V-FITC/PI staining based flow cytometric analysis (reference value: 4.01%). In kind it is functional.
The test system of assay [9] is HCT-116. Nature of the assay: Induction of apoptosis in human HCT-116 cells assessed as early apoptotic cells at 1 uM after 24 hrs by Annexin V-FITC/PI staining based flow cytometric analysis (reference value: 4.01%). Type of assay: functional.
For assay [10], the system named is HCT-116. Nature of the assay: Induction of apoptosis in human HCT-116 cells assessed as late apoptotic cells at 10 uM after 24 hrs by Annexin V-FITC/PI staining based flow cytometric analysis (reference value: 5.14%). In kind it is functional.
Assay [11] has as its system HCT-116. Briefly: Induction of apoptosis in human HCT-116 cells assessed as late apoptotic cells at 3 uM after 24 hrs by Annexin V-FITC/PI staining based flow cytometric analysis (reference value: 5.14%). In kind it is functional.
Assay [12] has as its system HCT-116. Nature of the assay: Induction of apoptosis in human HCT-116 cells assessed as late apoptotic cells at 1 uM after 24 hrs by Annexin V-FITC/PI staining based flow cytometric analysis (reference value: 5.14%). Type of assay: functional.
Assay [13] concerns HCT-116. Briefly: Induction of apoptosis in human HCT-116 cells assessed as necrotic cells at 10 uM after 24 hrs by Annexin V-FITC/PI staining based flow cytometric analysis (reference value: 0.51%). In kind it is functional.
In assay [14] the test system is HCT-116. Briefly: Induction of apoptosis in human HCT-116 cells assessed as necrotic cells at 3 uM after 24 hrs by Annexin V-FITC/PI staining based flow cytometric analysis (reference value: 0.51%). Type of assay: functional.

A value given as a limit tells only on which side of the number the result lay.

Sequence of Histone deacetylase 1 (Q13547 whole entry): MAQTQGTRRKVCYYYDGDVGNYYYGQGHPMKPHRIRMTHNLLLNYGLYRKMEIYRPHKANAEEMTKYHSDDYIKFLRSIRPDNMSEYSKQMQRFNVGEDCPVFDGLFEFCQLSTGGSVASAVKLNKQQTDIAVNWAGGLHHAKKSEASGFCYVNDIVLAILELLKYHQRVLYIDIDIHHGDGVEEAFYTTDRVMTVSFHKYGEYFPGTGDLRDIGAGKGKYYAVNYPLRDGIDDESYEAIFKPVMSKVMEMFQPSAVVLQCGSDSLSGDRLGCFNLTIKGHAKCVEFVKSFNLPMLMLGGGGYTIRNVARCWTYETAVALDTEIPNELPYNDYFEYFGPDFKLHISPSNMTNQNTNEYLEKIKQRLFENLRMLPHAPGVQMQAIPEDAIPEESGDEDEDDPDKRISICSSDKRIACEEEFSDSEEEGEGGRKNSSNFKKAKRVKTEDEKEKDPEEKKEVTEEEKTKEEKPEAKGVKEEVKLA
Sequence of Histone deacetylase 2 (Q92769 whole entry): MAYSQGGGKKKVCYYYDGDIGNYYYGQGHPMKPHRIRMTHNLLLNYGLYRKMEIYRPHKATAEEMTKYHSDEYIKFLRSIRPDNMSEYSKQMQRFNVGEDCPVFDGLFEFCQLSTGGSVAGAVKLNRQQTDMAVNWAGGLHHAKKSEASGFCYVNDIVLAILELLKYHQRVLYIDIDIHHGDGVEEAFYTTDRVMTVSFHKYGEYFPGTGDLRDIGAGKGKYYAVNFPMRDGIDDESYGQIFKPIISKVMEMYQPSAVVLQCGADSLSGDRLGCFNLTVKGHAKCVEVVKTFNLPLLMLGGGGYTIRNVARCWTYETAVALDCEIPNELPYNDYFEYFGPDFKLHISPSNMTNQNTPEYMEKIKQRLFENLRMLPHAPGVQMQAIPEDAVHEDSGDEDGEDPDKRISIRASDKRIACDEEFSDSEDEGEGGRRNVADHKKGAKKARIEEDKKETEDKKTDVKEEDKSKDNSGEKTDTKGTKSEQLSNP
Description for HeLa: Antiproliferative activity against human HeLa cells assessed as reduction in cell viability after 72 hrs by MTT assay
Description for MCF7: Antiproliferative activity against human MCF7 cells assessed as reduction in cell viability after 72 hrs by MTT assay

What is called IC50 is the concentration that inhibits the measured activity by half. With `COc1cccc(-c2ccc3c(NC(=O)C4CCC(C(=O)NO)CC4)n[nH]c3c2)c1` (centres undefined), the IC50 is 2420 nM on Histone deacetylase 1; 4630 nM on Histone deacetylase 2; 3340 nM at Histone deacetylase 8; 47400 nM in the assay on HCT-116 [1]; greater than 50000 nM in the assay with HeLa; greater than 50000 nM with MCF7.
For the compound `CCOc1cccc(-c2ccc3c(NC(=O)CCCCCCC(=O)NO)n[nH]c3c2)c1`, the IC50 at Histone deacetylase 1 was found to be 2.1 nM; on Histone deacetylase 2, 4.2 nM; at Histone deacetylase 8, 3.4 nM; with HCT-116 [1], 4200 nM; in the assay with HeLa, 10800 nM; with MCF7, 2400 nM.
Consider `O=C(CCCCCCC(=O)Nc1n[nH]c2cc(-c3cccc(C(F)(F)F)c3)ccc12)NO`, for which the IC50 was 2.5 nM on Histone deacetylase 1; 5 nM on Histone deacetylase 2; 4.1 nM at Histone deacetylase 8; 2900 nM with HCT-116 [1]; 6000 nM in the assay on HeLa; 47300 nM with MCF7.
Consider `COc1cccc(-c2ccc3c(NC(=O)CCCCCC(=O)NO)n[nH]c3c2)c1`, for which the 50% inhibitory concentration (IC50) came to 2.6 nM at Histone deacetylase 1; 63 nM on Histone deacetylase 2; 4.5 nM at Histone deacetylase 8; 10600 nM with HCT-116 [1]; 20100 nM in the assay with HeLa; 7400 nM in the assay with MCF7.
Take `O=C(CCCCCCC(=O)Nc1n[nH]c2cc(-c3ccccc3F)ccc12)NO`: the concentration for half-maximal inhibition (IC50) at Histone deacetylase 1 came out at 1.8 nM; at Histone deacetylase 2, 4.4 nM; at Histone deacetylase 8 it was 2.4 nM; with HCT-116 [1], 4100 nM; in the assay with HeLa, 13800 nM; in the assay on MCF7, 2500 nM.
`O=C(CCCCCCC(=O)Nc1n[nH]c2cc(-c3ccccc3)ccc12)NO`: the IC50 at Histone deacetylase 1 stood at 9.6 nM; on Histone deacetylase 2 it was 13.1 nM; at Histone deacetylase 8, 12.6 nM; in the assay with HCT-116 [1], 10200 nM; with HeLa, 12500 nM; in the assay on MCF7, 5500 nM.
Turning to `COc1cccc(-c2ccc3c(NC(=O)CCCCCCC(=O)NO)n[nH]c3n2)c1`, the IC50 on Histone deacetylase 1 was determined as 2.4 nM; on Histone deacetylase 2, 5.3 nM; at Histone deacetylase 8 it was 3.3 nM; in the assay with HCT-116 [1], 2700 nM; in the assay with HeLa, 3600 nM; in the assay with MCF7, 8600 nM.
On to `COc1cccc(-c2ccc3c(NC(=O)CCCCCCC(=O)NO)n[nH]c3c2)c1`, for which the IC50 on Histone deacetylase 1 amounted to 1.9 nM; at Histone deacetylase 2, 3.9 nM; on Histone deacetylase 8 it was 3 nM; in the assay on HCT-116 [1], 8100 nM; with HeLa, 3000 nM; in the assay with MCF7, 19100 nM.
With `COc1ccccc1-c1ccc2c(NC(=O)CCCCCCC(=O)NO)n[nH]c2c1`, the concentration for half-maximal inhibition (IC50) at Histone deacetylase 1 was 4.6 nM; on Histone deacetylase 2 it was 5.4 nM; at Histone deacetylase 8, 4.2 nM; in the assay with HCT-116 [1], 2700 nM; with HeLa, 5900 nM; with MCF7, 5700 nM.
As for `O=C(CCCCCCC(=O)Nc1n[nH]c2cc(-c3ccccc3Cl)ccc12)NO`, the concentration for half-maximal inhibition (IC50) at Histone deacetylase 1 was found to be 2.7 nM; on Histone deacetylase 2 it was 5.2 nM; at Histone deacetylase 8 it was 4 nM; in the assay on HCT-116 [1], 2600 nM; with HeLa, 8100 nM; with MCF7, 2200 nM.
`COc1cccc(-c2ccc3c(NC(=O)CCCCCCC(=O)NO)n[nH]c3c2)c1F`: the IC50 turned out to be 3.1 nM on Histone deacetylase 1; 6 nM at Histone deacetylase 2; 4.4 nM on Histone deacetylase 8; 7600 nM with HCT-116 [1]; 9800 nM with HeLa; 2000 nM in the assay on MCF7.
In the case of `O=C(CCCCCCC(=O)Nc1n[nH]c2cc(-c3ccsc3)ccc12)NO`, the IC50 was 36.2 nM at Histone deacetylase 1; 31.6 nM at Histone deacetylase 2; 32.5 nM on Histone deacetylase 8; 7500 nM in the assay on HCT-116 [1]; 29500 nM in the assay on HeLa; 8300 nM in the assay on MCF7.
Take `COc1cccc(-c2ccc3c(NC(=O)CCCCC(=O)NO)n[nH]c3c2)c1`: the 50% inhibitory concentration (IC50) stood at 13 nM at Histone deacetylase 1; 62 nM at Histone deacetylase 2; 41 nM at Histone deacetylase 8; 23500 nM with HCT-116 [1]; 5800 nM in the assay with HeLa; 4400 nM with MCF7.
As for `O=C(CCCCCCC(=O)Nc1ccccc1)NO` [VORINOSTAT], the IC50 in the assay with HCT-116 [1] is 4900 nM; in the assay on MCF7, 800 nM. For the same compound, the Activity is reported as 26.2% in the assay on HCT-116 [2]; 29.4% in the assay with HCT-116 [3]; 44.2% in the assay on HCT-116 [4]; 17.93% in the assay with HCT-116 [5]; 77.54% with HCT-116 [6]; 14.44% in the assay on HCT-116 [7]. In addition, the Activity with HCT-116 [8] worked out at 12.27%; in the assay on HCT-116 [9], 12.87%; with HCT-116 [10], 67.72%; with HCT-116 [11] it was 67.78%; in the assay with HCT-116 [12] it was 57.83%; in the assay with HCT-116 [13], 1.37%. Also, the Activity in the assay on HCT-116 [14] is on record as 2.03%.
On to `COc1ccc(F)c(-c2ccc3c(NC(=O)CCCCCCC(=O)NO)n[nH]c3c2)c1`, for which the IC50 was 3 nM on Histone deacetylase 1; 3.5 nM on Histone deacetylase 2; 4.9 nM at Histone deacetylase 8; 7500 nM with HCT-116 [1]; 3300 nM in the assay with HeLa; 4900 nM with MCF7.
In the case of `O=C(CCCCCCC(=O)Nc1n[nH]c2cc(-c3cccc(Cl)c3)ccc12)NO`, the IC50 was 3.7 nM at Histone deacetylase 1; 4 nM at Histone deacetylase 2; 3.8 nM on Histone deacetylase 8; 41800 nM in the assay on HCT-116 [1]; 200 nM with HeLa; 27500 nM in the assay with MCF7.
As for `O=C(CCCCCCC(=O)Nc1n[nH]c2cc(-c3ccncc3)ccc12)NO`, the IC50 on Histone deacetylase 1 amounted to 23 nM; at Histone deacetylase 2, 25.9 nM; on Histone deacetylase 8, 24.5 nM; in the assay on HCT-116 [1], 12300 nM; in the assay on HeLa, 6900 nM; in the assay with MCF7, 40100 nM.
Take `COc1cccc(-c2ccc3c(NC(=O)CCCC(=O)NO)n[nH]c3c2)c1`: the IC50 at Histone deacetylase 1 was 76 nM; at Histone deacetylase 2 it was 168 nM; at Histone deacetylase 8, 54 nM; in the assay on HCT-116 [1], greater than 50000 nM; in the assay on HeLa it was greater than 50000 nM; in the assay with MCF7, 41500 nM.
Take `COc1ccc(-c2ccc3c(NC(=O)CCCCCCC(=O)NO)n[nH]c3c2)cc1OC`: the 50% inhibitory concentration (IC50) at Histone deacetylase 1 was 3.4 nM; on Histone deacetylase 2 it was 4.6 nM; on Histone deacetylase 8, 3.2 nM; with HCT-116 [1] it was 14600 nM; in the assay on HeLa, 21300 nM; with MCF7, 10900 nM.
With `COc1cc(OC)cc(-c2ccc3c(NC(=O)CCCCCCC(=O)NO)n[nH]c3c2)c1`, the half-inhibitory concentration (IC50) on Histone deacetylase 1 came out at 4.6 nM; at Histone deacetylase 2, 4.8 nM; on Histone deacetylase 8, 4.4 nM; in the assay with HCT-116 [1], 9500 nM; in the assay with HeLa, 7300 nM; with MCF7 it was 55200 nM.
